Assays:
CRH mRNA = assay: CRH expression in the hypothalamic PVN (in situ hybridization); type: in vivo; conditions: melanoma-bearing mice; significant in MeWo- and MelJuso-bearing mice
Protocol: CRH Expression in the Brain (In Situ Hybridization).
Sections of 10 μm of the PVN were cut according to a mouse brain atlas (Allen Institute for brain science, http://www.brain-map.org) on a cryostat, mounted on polysine microscope slides (Menzel-Glazer, Braunschweig, Germany), and stored at −80° C. for 24 h. Then sections were fixed in 4% paraformaldehyde, further permeabilized by proteinase K treatment, acetylated twice with 0.25% acetic anhydride in 0.1 M triethanolamine, and dehydrated in a graded ethanol series. Hybridization, carried out as described before (Lachize, S. et al. Proc Natl Acad Sci USA 106, 8038-8042 (2009)), was performed using specific 48-mer, ^35S-labeled oligonucleotide probes for murine CRH mRNA (5′-GGCCCGCGGCGCTCCAGAGACGGATCCCCTGCTCAGCAGGGCCCTGCA-3′) (SEQ ID NO: 1). Hybridized slices were exposed to BioMax MR film (Kodak, Rochester, N.Y.). The mRNA expression of CRH in the PVN was quantified as gray density minus background in digitized images using the NIH ImageJ 1.6 program (http://rsb.info.nih.gov/ij). Bilateral measures were taken from two to four PVN sections for each mouse, which were pooled to provide individual means per mouse. For tissue background, the optical density of a nonhybridized region outside the PVN was measured.

[1] = test system: HepG2 cells isolated from tumor-bearing mice; assay: Chemosensitization of cultured HepG2 cells isolated from xenografts; type: cell-based, human; conditions: 72 h-cultured, PL 0.2 μM, Chemo 0.15 μM DXR, Pter = in vivo pretreatment
Protocol: FIGS. 18-25. Effect of piperlongumine and I-BET762, as GSH depleting and chemosensitizing agents, in in vitro growing human melanoma, pancreatic, breast, lung, liver, prostate, ovarian, and colorectal cancer cells. Cancer cells, isolated from Pter-treated tumor-bearing mice, were cultured as indicated under Methods. Chemotherapy (0.25 μM PAC.PBP in A2058 melanoma and MDA-MB-231 breast carcinoma cells; 0.125 μM PAC.PBP and 25 μM GTB in AsPC-1 pancreatic cancer cells; 1 μM VRB and 15 μM cisPt in A459 lung carcinoma cells; 0.15 μM DXR in HepG2 hepatocellular carcinoma cells; 15 nM DCT in PC-3 prostate carcinoma cells; 0.15 μM PAC.PBP and 25 μM CarboPt in SK-OV-3 ovarian carcinoma cells; 3 μM 5-FU, 1 μM FA and 0.6 μM IRI in HT-29 colorectal carcinoma cells) was added to the cultured flasks 24 h after seeding. […]
Human A2058, MeWo and MelJuso melanoma cells, and mouse AtT-20 pituitary corticotroph tumor cells were from the American Type Culture Collection (ATCC). […] Cell numbers were determined using a Coulter Counter (Coulter Electronic Inc., Miami, Fla.). […] Cellular viability was assessed as previously reported (Mena, S. et al. Clin Cancer Res 13, 2658-2666 (2007)), by measuring trypan blue exclusion and leakage of lactate dehydrogenase activity. […]

In the case of `COc1cc(/C=C/c2ccc(O)cc2)cc(OC)c1` [Pter, trans-3,5-dimethoxy-4′-hydroxystilbene], the “CRH mRNA expression in the hypothalamic PVN” value (CRH mRNA) is reported as “further decrease” and the Viable cells [1] is reported as 1580 ± 318 ×10^6.

From patent US11179348B2, “Combination comprising pterostilbene for the treatment of cancer” (FUNDACIÓN UNIVERSIDAD CATÓLICA DE VALENCIA SAN VICENTE …, priority 2015, dated 2021)
